Earlier results as cited in US9301906B2, “Dentrifice composition” (Kao Corporation, priority 2011, dated 2016).

SMILES | solubility in 100 g of an aqueous solution at 20° C.
OC[C@@H](O)[C@@H](O)CO [erythritol] | 36 g in 100 g of an aqueous solution
OC[C@@H](O)[C@@H](O[C@H]1O[C@H](CO)[C@@H](O)[C@H](O)[C@H]1O)[C@H](O)[C@@H](O)CO [maltitol] | 60 g in 100 g of an aqueous solution
OC[C@@H](O)[C@@H](O)[C@H](O)[C@H](O)CO [mannitol] | 18 g in 100 g of an aqueous solution
OC[C@@H](O)[C@@H](O)[C@H](O)[C@@H](O)CO [sorbitol] | 72 g in 100 g of an aqueous solution
OC[C@@H](O)[C@H](O)[C@@H](O)CO [xylitol] | 66 g in 100 g of an aqueous solution
